In PMC13192270, “RhlR quorum-sensing receptor ligand sensitivity regulates the differential expression of phenazine genes in Pseudomonas aeruginosa” (Journal of Bacteriology, 2026):
Changes are numbered by the printed parent chain. Where two headings read alike, the source gives them in different places.

Experiments:
Experiment in all cases: E. coli prhlA-luxCDABE luciferase reporter assay
Assay type in all cases: cell-based
RhlR (A44M) = target: T1, RhlR (A44M) (Pseudomonas aeruginosa, UniProt P54292, A44M); conditions: even at the highest dose of C4HSL tested
T1 construct: expressed in transfected cells; host or cells: E. coli carrying pBAD-A-rhlR mutant, pCS26-prhlA-luxCDABE and pACYC-pqsE or empty pACYC
Excerpt: (§1) Previous analysis of the RhlR LBP focused on highly conserved residues that were known from other AHL-binding proteins to be important contacts for AHL molecules, particularly the lactone head group. We performed conservation analyses on 300 LuxR-type receptors to determine variable and moderately conserved residues in the LBP (Fig. 1B) and, in conjunction with our previously determined experimental structure of WT RhlR bound to the synthetic agonist mBTL, used for docking C4- and C6HSL. Based on our docking simulations, C4- and C6HSL occupy a similar position in the LBP as mBTL, a highly efficacious activator of RhlR (Fig. 1C; Fig. S1). We targeted residues A44, G46, T58, L69, Y72, D81, I84, W96, and W108 (Fig. 1B and C). These residues were selected because of their proximity to the acyl tail of C4HSL, as well as the differences in conservation that are observed at these sites. We used an E. coli luciferase reporter assay to monitor ligand-dependent activation of WT RhlR and RhlR variants. WT RhlR and RhlR variants were expressed under the control of an arabinose-inducible promoter (Fig. S2). Transcription was monitored by light production via the expression of the luxCDABE operon controlled by the RhlR-dependent promoter of rhlA. Binding of RhlR to the rhlA promoter is highly dependent on the C4HSL-RhlR interaction, based on ChIP-seq analyses performed in P. aeruginosa as well as previously published E. coli reporter systems ([34], [39]). After expressing WT RhlR and RhlR variants in the E. coli reporter system, we performed dose response assays using C4HSL to calculate the concentration of C4HSL required to activate the reporter system to 50% maximum levels (EC50 value; Table 1). As expected, transcription activation by WT RhlR increased with increased C4HSL levels, with an EC50 value of ~2 µM. We observed a range of responses. Figure 1C depicts the targeted residues, which are colored based on the effect of amino acid substitution.
(§2) RhlR requires the accessory-binding protein, PqsE, for maximal activity. To determine if PqsE expression altered the activation of RhlR variants, we assessed AHL-dependent RhlR activation of the prhlA-luxCDABE reporter in the presence of a third plasmid that constitutively expresses PqsE in E. coli. […] RhlR variants that were still active but with increased EC50 values for C4HSL could have their activity enhanced by PqsE. […] Thus, alterations to the LBP can diminish the additive effect of PqsE-dependent transcription, indicating a potential role of allosteric conformational changes dependent on ligand occupancy. […] RhlR variants at residues I84 and W108 could not be activated by C4HSL, and thus, light levels remained low at all concentrations that were tested. Unlike the aforementioned variants, RhlR I84M/W and RhlR W108F/Y were activated by the expression of PqsE (Fig. S4).
(§3) All E. coli strains in this study were grown overnight with shaking in 5 mL Luria-Bertani (LB) media supplemented with 100 µg/mL ampicillin, 50 µg/mL kanamycin, and 15 µg/mL tetracycline at 37°C overnight. Overnight cultures were diluted 1:100 into fresh media, grown at 37°C with shaking for 2 h until reaching OD600 = 0.4. Cultures were induced with a final concentration of 0.1% arabinose, and 198 μL of the induced culture was mixed with 2 μL of C4HSL dilutions in a clear-bottom, black-opaque 96-well plate (Corning) and grown at 37°C with shaking for 4 h. The C4HSL dilution series was performed 1:1 in dimethyl sulfoxide (DMSO) with a top final concentration of 10 μM. Luminescence and optical density were recorded using a Glomax (Promega) plate reader.

RhlR (G46M) = target: T2, RhlR (G46M) (Pseudomonas aeruginosa, UniProt P54292, G46M)
T2 construct: expressed in transfected cells; host or cells: E. coli carrying pBAD-A-rhlR mutant, pCS26-prhlA-luxCDABE and pACYC-pqsE or empty pACYC
Excerpt: as §1, §2, §3

RhlR (G46W) = target: T3, RhlR (G46W) (Pseudomonas aeruginosa, UniProt P54292, G46W); conditions: even at the highest dose of C4HSL tested
T3 construct: expressed in transfected cells; host or cells: E. coli carrying pBAD-A-rhlR mutant, pCS26-prhlA-luxCDABE and pACYC-pqsE or empty pACYC
Excerpt: as §1, §2, §3

RhlR (I84M) = target: T4, RhlR (I84M) (Pseudomonas aeruginosa, UniProt P54292, I84M); conditions: pqsE co-expressed
T4 construct: expressed in transfected cells; host or cells: E. coli carrying pBAD-A-rhlR mutant, pCS26-prhlA-luxCDABE and pACYC-pqsE or empty pACYC
Excerpt: as §1, §2, §3

RhlR (I84W) = target: T5, RhlR (I84W) (Pseudomonas aeruginosa, UniProt P54292, I84W); conditions: pqsE co-expressed
T5 construct: expressed in transfected cells; host or cells: E. coli carrying pBAD-A-rhlR mutant, pCS26-prhlA-luxCDABE and pACYC-pqsE or empty pACYC
Excerpt: as §1, §2, §3

RhlR (L69K) = target: T6, RhlR (L69K) (Pseudomonas aeruginosa, UniProt P54292, L69K); conditions: pqsE co-expressed
T6 construct: expressed in transfected cells; host or cells: E. coli carrying pBAD-A-rhlR mutant, pCS26-prhlA-luxCDABE and pACYC-pqsE or empty pACYC
Excerpt: as §1, §2, §3

RhlR (L69M) = target: T7, RhlR (L69M) (Pseudomonas aeruginosa, UniProt P54292, L69M)
T7 construct: expressed in transfected cells; host or cells: E. coli carrying pBAD-A-rhlR mutant, pCS26-prhlA-luxCDABE and pACYC-pqsE or empty pACYC
Excerpt: as §1, §2, §3

RhlR (T58V) = target: T8, RhlR (T58V) (Pseudomonas aeruginosa, UniProt P54292, T58V)
T8 construct: expressed in transfected cells; host or cells: E. coli carrying pBAD-A-rhlR mutant, pCS26-prhlA-luxCDABE and pACYC-pqsE or empty pACYC
T8 sequence (P54292 1-241 T58V): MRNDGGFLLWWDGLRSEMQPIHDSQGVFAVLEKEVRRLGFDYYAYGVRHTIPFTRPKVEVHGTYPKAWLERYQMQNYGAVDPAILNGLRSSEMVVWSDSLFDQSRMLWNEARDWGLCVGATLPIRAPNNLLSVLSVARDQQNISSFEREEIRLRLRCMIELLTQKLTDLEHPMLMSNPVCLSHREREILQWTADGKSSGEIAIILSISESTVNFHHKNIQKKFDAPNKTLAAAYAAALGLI
Excerpt: as §1, §2, §3

WT RhlR = target: T9, WT RhlR (Pseudomonas aeruginosa, UniProt P54292)
T9 construct: expressed in transfected cells; host or cells: E. coli carrying pBAD-A-rhlR, pCS26-prhlA-luxCDABE and pACYC-pqsE or empty pACYC
T9 sequence (P54292 1-241): T8 sequence (P54292 1-241 T58V) with V58T
Excerpt: as §1, §2, §3

CCCC(=O)N[C@H]1CCOC1=O [C4HSL, N-butyryl-L-homoserine lactone]
activation by C4HSL in the reporter system (RhlR (A44M)): not activated | activation by C4HSL in the reporter system (RhlR (G46M); even at the highest dose of C4HSL tested): not activated | EC50 (RhlR (G46M); pqsE co-expressed): 32.7 µM | activation by C4HSL in the reporter system (RhlR (G46W)): not activated | EC50 (RhlR (I84M)): 3.68 µM | EC50 (RhlR (I84W)): 5.2 µM | EC50 (RhlR (L69K)): 13.2 µM | EC50 (RhlR (L69M); Vector (no pqsE)): 13.8 µM | EC50 (RhlR (L69M); pqsE co-expressed): 1.72 µM | EC50 (RhlR (T58V); Vector (no pqsE)): 0.66 µM | EC50 (RhlR (T58V); pqsE co-expressed): 0.148 µM | EC50 (WT RhlR; Vector (no pqsE), read-out: EC50): 2.42 µM | EC50 (WT RhlR; pqsE co-expressed, read-out: EC50): 0.534 µM | C4HSL required for QS activation (WT RhlR; statement in discussion): > 1 µM | EC50 (WT RhlR; without PqsE, read-out: EC50 value): ~2 µM
